Assay results published in EPA's ToxRefDB 2.

Legend:
mouse [1] = conditions: Carcinogenicity, b6c3f1, Oral, Feed, dose end: 105 week, group: systemic
mouse [2] = conditions: Subchronic oral toxicity in rodents, b6c3f1, Feed, dose end: 13 week, group: systemic
rat [3] = conditions: Subchronic oral toxicity in rodents, fischer, Feed, dose end: 13 week
primate = conditions: Sub-acute repeat dose toxicity; macaque; Oral; Gavage/Intubation; dose end: 35 day; group: systemic; systemic / clinical chemistry / bilirubin / total bilirubin
rat [4] = conditions: Chronic toxicity; sprague dawley; Oral; Gavage/Intubation; dose end: 26 week; group: systemic; systemic / clinical chemistry / alanine aminotransferase (alt/sgpt) / alanine aminotransferase (alt/sgpt) + systemic / clinical chemistry / …
rat [5] = conditions: Fertility (Segment I), sprague dawley, Oral, Gavage/Intubation, dose end: 63 day, group: parental
dog [6] = conditions: Subchronic oral toxicity in nonrodent, beagle, Gavage/Intubation, dose end: 1 month, group: systemic
dog [7] = conditions: Chronic toxicity, beagle, Oral, Gavage/Intubation, dose end: 26 week, group: systemic
rat [8] = conditions: Sub-acute repeat dose toxicity; sprague dawley; Oral; Gavage/Intubation; dose end: 1 month; group: systemic; systemic / clinical chemistry / protein / protein + systemic / clinical chemistry / alanine aminotransferase (alt/sgpt) / alanine …
rat [9] = conditions: Fertility (Segment I), sprague dawley, Oral, Gavage/Intubation, dose end: 6 GD
mouse [10] = conditions: Sub-acute repeat dose toxicity; b6c3f1; Oral; Gavage/Intubation; dose end: 14 day; group: systemic; systemic / in life observation / clinical signs / distended abdomens + systemic / in life observation / clinical signs / fur (altered …
mouse [11] = conditions: Subchronic oral toxicity in rodents, b6c3f1, Gavage/Intubation, dose end: 13 week, group: systemic, systemic / pathology microscopic / kidney / fibrosis + systemic / pathology microscopic / kidney / inflammation + systemic / pathology …
rat [12] = conditions: Subchronic oral toxicity in rodents, fischer, Gavage/Intubation, dose end: 13 week, group: systemic
rat [13] = conditions: Combined chronic toxicity/carcinogenicity; fischer; Oral; Gavage/Intubation; dose end: 2 year; group: systemic; systemic / pathology microscopic / kidney / cyst + systemic / pathology microscopic / kidney / hyperplasia + systemic / pathology …
mouse [14] = conditions: Carcinogenicity, b6c3f1, Oral, Gavage/Intubation, dose end: 2 year, group: systemic
[15] = systemic / in life observation / body weight / body weight + systemic / hematology / reticulocyte / reticulocyte
[16] = systemic / in life observation / body weight / body weight + systemic / in life observation / body weight / body weight gain + systemic / …
[17] = group: developmental, developmental / offspring survival late / [other] / [other]
[18] = group: maternal, reproductive / offspring survival early / birth index / birth index
[19] = group: maternal, reproductive / reproductive performance / estrous cycle / length
[20] = group: systemic, systemic / pathology microscopic / spleen / hemosiderosis + systemic / in life observation / clinical signs / fur (altered appearance)
[21] = systemic / in life observation / body weight / body weight + systemic / in life observation / body weight / body weight gain + systemic / in…
[22] = systemic / in life observation / body weight / body weight + systemic / organ weight / thymus / relative to body weight
[23] = systemic / in life observation / body weight / body weight + systemic / organ weight / thymus / relative to body weight + systemic / …
[24] = systemic / organ weight / adrenal gland / absolute + systemic / organ weight / adrenal gland / relative to body weight
[25] = systemic / organ weight / adrenal gland / absolute + systemic / organ weight / adrenal gland / relative to body weight + systemic / clinical…
[26] = group: maternal, reproductive / reproductive performance / estrous cycle / abnormal
[27] = group: parental, systemic / in life observation / body weight / body weight gain + systemic / in life observation / clinical signs / salivation + systemic / …
[28] = systemic / in life observation / clinical signs / motor activity + systemic / in life observation / body weight / body weight + systemic / …
[29] = systemic / in life observation / clinical signs / salivation
[30] = systemic / pathology microscopic / lung / hyperplasia
[31] = systemic / pathology microscopic / lung / hyperplasia + systemic / pathology microscopic / liver / adenoma + systemic / pathology …

`CC(C)(C)c1cc(O)ccc1O` [tert-Butylhydroquinone] showed an LOAEL (mouse [1]; systemic / in life observation / body weight / body weight) of 600 mg/kg/day, an LEL (mouse [1]; [15]) of 600 mg/kg/day and an NEL (mouse [1]; [15]) of 300 mg/kg/day. The NOAEL (mouse [1]; [15]) was 300 mg/kg/day, the LOAEL (mouse [2]; systemic / in life observation / body weight / body weight + systemic / in life observation / body weight / body weight gain) was 1950 mg/kg/day and the LEL (mouse [2]; [16]) was 1950 mg/kg/day. The NEL (mouse [2]; [16]) was 880 mg/kg/day, the NOAEL (mouse [2]; [16]) was 880 mg/kg/day and the LEL (rat [3]; [17]) was 750 mg/kg/day. The NEL (rat [3]; [17]) was 400 mg/kg/day, the LOAEL (rat [3]; [18]) was 1000 mg/kg/day and the NOAEL (rat [3]; [18]) was 500 mg/kg/day. It also gave an LEL (rat [3]; [19]) of 200 mg/kg/day, an NEL (rat [3]; [19]) of under 200 mg/kg/day and an LOAEL (rat [3]; group: systemic, systemic / in life observation / body weight / body weight + systemic / in life observation / body weight / offspring (pup) weight) of 400 mg/kg/day. For the same molecule, the NOAEL (rat [3]; group: systemic, systemic / in life observation / body weight / body weight + systemic / in life observation / body weight / offspring (pup) weight + …) was 200 mg/kg/day, the LEL (rat [3]; [20]) was 200 mg/kg/day and the NEL (rat [3]; [20]) was under 200 mg/kg/day.

Work on `Cc1cc2c(cc1C(F)(F)F)N(C(=O)Nc1ccc(Oc3cccnc3C)nc1)CC2.Cl` yielded an LEL (primate) of 1000 mg/kg/day, an LOAEL (primate) of over 1000 mg/kg/day and an NEL (primate) of 300 mg/kg/day. It also gave an NOAEL (primate) of at least 1000 mg/kg/day, an LEL (rat [4]) of 2 mg/kg/day and an LOAEL (rat [4]) of over 100 mg/kg/day. The NEL (rat [4]) was under 2 mg/kg/day, the NOAEL (rat [4]) was at least 100 mg/kg/day and the LOAEL (rat [5]; [21]) was over 200 mg/kg/day. The NEL (rat [5]; [21]) was 2 mg/kg/day, the NOAEL (rat [5]; [21]) was at least 200 mg/kg/day and the LEL (rat [5]; systemic / in life observation / body weight / body weight gain) was 20 mg/kg/day. The LEL (dog [6]; [22]) was 2 mg/kg/day, the NEL (dog [6]; [22]) was under 2 mg/kg/day and the LOAEL (dog [6]; [23]) was over 1000 mg/kg/day. The NOAEL (dog [6]; [23]) was at least 1000 mg/kg/day, the LEL (dog [7]; [24]) was 2 mg/kg/day and the NEL (dog [7]; [24]) was under 2 mg/kg/day. For the same molecule, the LOAEL (dog [7]; [25]) was over 300 mg/kg/day, the NOAEL (dog [7]; [25]) was at least 300 mg/kg/day and the LEL (rat [8]) was 2 mg/kg/day. For the same molecule, the LOAEL (rat [8]) was over 200 mg/kg/day, the NEL (rat [8]) was under 2 mg/kg/day and the NOAEL (rat [8]) was at least 200 mg/kg/day. For the same molecule, the LEL (rat [9]; [26]) was 20 mg/kg/day, the LOAEL (rat [9]; [26]) was over 20 mg/kg/day and the NEL (rat [9]; [26]) was 2 mg/kg/day. It also gave an NOAEL (rat [9]; [26]) of at least 20 mg/kg/day, an LEL (rat [9]; [27]) of 2 mg/kg/day and an LOAEL (rat [9]; [27]) of over 20 mg/kg/day. For the same molecule, the NEL (rat [9]; [27]) was 0.2 mg/kg/day and the NOAEL (rat [9]; [27]) was at least 20 mg/kg/day.

Molecule `O=C(O)c1ccccc1` [Benzoic acid] has an LEL (mouse [10]) of 642 mg/kg/day, an LOAEL (mouse [10]) of over 642 mg/kg/day and an NEL (mouse [10]) of 321 mg/kg/day. The NOAEL (mouse [10]) was at least 642 mg/kg/day.

Work on `c1ccc2occc2c1` [2,3-Benzofuran] yielded an LEL (mouse [11]) of 250 mg/kg/day, an LOAEL (mouse [11]) of 250 mg/kg/day and an NEL (mouse [11]) of 125 mg/kg/day. The NOAEL (mouse [11]) was 125 mg/kg/day, the LOAEL (rat [12]; [28]) was 125 mg/kg/day and the NOAEL (rat [12]; [28]) was 62.5 mg/kg/day. It also gave an LEL (rat [12]; [29]) of 31.2 mg/kg/day, an NEL (rat [12]; [29]) of under 31.2 mg/kg/day and an LEL (rat [13]) of 30 mg/kg/day. The LOAEL (rat [13]) was 30 mg/kg/day, the NEL (rat [13]) was under 30 mg/kg/day and the NOAEL (rat [13]) was under 30 mg/kg/day. The LOAEL (mouse [14]; [30]) was 60 mg/kg/day, the NOAEL (mouse [14]; [30]) was under 60 mg/kg/day and the LEL (mouse [14]; [31]) was 60 mg/kg/day. For the same molecule, the NEL (mouse [14]; [31]) was under 60 mg/kg/day.
